Source: patent US8877244B2, “Stabilized pesticidal granules” (priority 2006, dated 2014)

How the values were obtained:
[1] = Stability comparison: accelerated temperature storage of coated granules, a.i. extracted and assayed by HPLC; format: physicochemical; conditions: storage at 38° C. and 50° C.
Description: The materials prepared in examples 1-7 are tested for stability as follows: • 1) After obtaining the coated granules according to the procedures given above, material is divided up into samples by using a standard “Riffler”, which is used to generate statistically representative samples from a large batch. • 2) The individual “riffled” samples are put on accelerated temperature storage (in ovens) at 38° C. and 50° C. • 3) Samples are pulled from each temperature at regular intervals, and assayed for 2-(2′-nitro-4′-methylsulphonylbenzoyl)-1,3-cyclohexanedione acid concentration (weight %). Commonly 2-3 samples are pulled from each temperature, each week. • 4) The pulled samples are analyzed for stability by extraction of the a.i. material from the granules and assayed by HPLC.

[2] = test system: large crabgrass (Digitaria sanguinalis); assay: Biology comparison: control of large crabgrass by stored granule samples; format: in vivo; conditions: after storage for 1 year at room temperature or 19 days at 50° C.
Text: Callisto® (a commercially available liquid formulation containing 4 lbs/gal of the active ingredient 2-(2′-nitro-4′-methylsulphonylbenzoyl)-1,3-cyclohexanedione acid) (Syngenta Crop Protection, Inc.) is sprayed onto fertilizer granules (Scotts® Turf Builder® Lawn Fertilizer 29-3-4 (with added nutrients)) (The Scotts Co.) in an amount sufficient to achieve an average a.i. loading of 0.082% by weight. Sample 2 is a control sample that is freshly prepared and has not been stored. Sample 3 is stored for 1 year at ambient room temperature. Sample 4 is stored under accelerated conditions (19 days at 50° C.).
A spray solution of Example 1 is sprayed onto fertilizer granules (Scotts® Turf Builder® Lawn Fertilizer 29-3-4 (with added nutrients)) (The Scotts Co.) in an amount sufficient to achieve an average a.i. loading of 0.082% by weight. Sample 5 is stored for 1 year at ambient room temperature. Sample 6 is stored under accelerated conditions (19 days at 50° C.).
All samples are applied to large crabgrass (Digitaria sanguinalis) at 224 g ai/ha, and control assessed 10 days after treatment. Sample 1 is an untreated control.

2-(2′-nitro-4′-methylsulphonylbenzoyl)-1,3-cyclohexanedione copper chelate
stability on granules compared with the unchelated (acid) form [1]: improved stability
control of large crabgrass compared with the unchelated (acid) form on fertiliser granules [2]: improved control of large crabgrass
